Key:
[1] = Memory-enhancement activity in the passive avoidance test in the rat; type: in vivo, rat (male Wistar); settings: rat
[2] = Memory-enhancement activity in the active avoidance test in the rat; type: in vivo, rat (male Wistar); settings: for % variation vs controls, avoidance learning / % variation vs controls, avoidance memory / % variation vs controls, escape response / % variation vs controls, shock response / % variation vs controls, total avoidance response / Average % avoidance learning, last 10 TR / Average % avoidance memory, first 10 TR/40 TR / Average % escape response / Average % shock response / Average % total avoidance response, 40 trials: fifth day
Text: 3) Memory-enhancement activity in the "active avoidance" test in the rat
Male Wistar rats which weighed about 200 g and had not fasted were used. The method consisted of making the animal understand that, in order to avoid a shock, it must go from one compartment of the equipment used (a shuttle box) to the other. For this reason it is defined as active avoidance (because the animal takes action to avoid the punishment).
In this test it is also possible to discriminate between two different parameters: memory and learning.
The equipment consisted of a cage divided into two portions by a wall with an opening at floor level to enable the animal to go from one portion of the cage to the other.
The reinforcement, that is, the reason which forced the rat to become conditioned to the sound and to the light, consisted of an electrical stimulus coming from the grid floor of the cage (an Unconditioned stimulus). The floor of the cage was constituted by a metal grid for the passage of the current and could rock so that, each time the rat passed through the dividing hole, the floor tilted, due to its weight, interrupting the current.
The test lasted for five days. On the first day, the animals were subjected to the first session of 40 cycles with an interval of 30 sec between cycles (duration of the session=20 minutes).
For each 30 sec cycle, a light stimulus and a sound stimulus lasting for 3 seconds were applied, followed by the 0.4 mA shock, which also lasted for 3 sec.
At the end of the first day, the rats were selected randomly in homogeneous groups and treated with the product under test or with physiological solutions (controls).
On subsequent days, the rats underwent the first treatment 15 minutes before the session and the second treatment at the end of the day. In 5 days of tests the animal thus underwent 8 treatments in total.
The 40 cycles were divided into 4 sessions each of 10 cycles for the 5 days' duration of the test.
The performance of each animal was evaluated as: % shock response, % escape response; % total avoidance response (these refer to all 40 cycles of each day); memory, as % of the avoidance responses in the first session of each day (the first 10 cycles); learning: as % of avoidance responses in the fourth session of each day (the last 10 cycles).
All the % were calculated on regression lines calculated on the basis of the responses obtained daily for each individual parameter, on the fifth (last) day of the experiment.
The results are expressed as the percentage variation of the averages of the individual responses obtained for the treated groups in comparison with the control group. The results thus calculated are given in Table 3 below, which gives the statistical analysis between the treatment groups against the controls, carried out by analysis of the relative variance with respect to the overall results for the 5 days.

[3] = test system: excitor amino-acid receptors of cortical membranes ("forebrain") of rats; assay: Inhibition of the specific binding of [3H]-glutamate to rat forebrain membranes
Outline: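 Forebrain membranes (cortex plus hippocampus, striatum removed) in Tris-HCl pH 7.1 incubated with ³H-L-glutamate and test compound for 20 min at 37 °C. Filtration on glass-fibre filters, scintillation counting; specific binding = total minus binding with 3.6 mM cold L-glutamate.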

SMILES: CC1(C)CCC(NC(=O)[C@@H](N)CCC(=O)O)CC1 [Compound 23, 1-(4,4-dimethylcyclohexyl)-L-isoglutamine[4-amino-5-(4',4'-dimethylcyclohexylamine)-5-oxopentanoic acid (S)]]
- change in vivo at 0.1 mg/kg ([1]; 96 h, 0.1 mg/kg IP, retest on the 4th day, 6 treatments, read-out: % variation vs controls (FS) in step through latency): 11%
- change in vivo at 1 mg/kg ([1]; 96 h, 1 mg/kg IP, retest on the 4th day, 6 treatments, read-out: % variation vs controls (FS) in step through latency): 19%
- change in vivo at 10 mg/kg ([1]; 96 h, 10 mg/kg IP, retest on the 4th day, 6 treatments, read-out: % variation vs controls (FS) in step through latency): 43%
- ED30 ([1]; IP, read-out: ED30 (dose increasing the latency time (STL) by 30%)): 2.3 mg/kg
- Activity in increasing the avoidance time (in words) ([1]; IP, retest on the 4th day): considerable activity in increasing the avoidance time
- % variation vs controls, avoidance learning ([2]; 1 mg/kg i.p. 2/day): +17.2%
- % variation vs controls, avoidance memory ([2]; 1 mg/kg i.p. 2/day): -16.7%
- % variation vs controls, escape response ([2]; 1 mg/kg i.p. 2/day): -11.1%
- % variation vs controls, shock response ([2]; 1 mg/kg i.p. 2/day): -8.6%
- % variation vs controls, total avoidance response ([2]; 1 mg/kg i.p. 2/day): +33.3%
- Average % avoidance learning, last 10 TR ([2]; 1 mg/kg i.p. 2/day): 34%
- Average % avoidance memory, first 10 TR/40 TR ([2]; 1 mg/kg i.p. 2/day): 10%
- Average % escape response ([2]; 1 mg/kg i.p. 2/day): 8%
- Average % shock response ([2]; 1 mg/kg i.p. 2/day): 64%
- Average % total avoidance response, 40 trials ([2]; 1 mg/kg i.p. 2/day): 26%
- % variation vs controls, avoidance learning ([2]; 3 mg/kg i.p. 2/day): +82.7%
- % variation vs controls, avoidance memory ([2]; 3 mg/kg i.p. 2/day): +142%
- % variation vs controls, escape response ([2]; 3 mg/kg i.p. 2/day): +144%
- % variation vs controls, shock response ([2]; 3 mg/kg i.p. 2/day): -51.4%
- % variation vs controls, total avoidance response ([2]; 3 mg/kg i.p. 2/day): +109%
- Average % avoidance learning, last 10 TR ([2]; 3 mg/kg i.p. 2/day): 53%
- Average % avoidance memory, first 10 TR/40 TR ([2]; 3 mg/kg i.p. 2/day): 29%
- Average % escape response ([2]; 3 mg/kg i.p. 2/day): 22%
- Average % shock response ([2]; 3 mg/kg i.p. 2/day): 34%
- Average % total avoidance response, 40 trials ([2]; 3 mg/kg i.p. 2/day): 44%
- % variation vs controls, avoidance learning ([2]; 10 mg/kg i.p. 2/day): +145%
- % variation vs controls, avoidance memory ([2]; 10 mg/kg i.p. 2/day): +183%
- % variation vs controls, escape response ([2]; 10 mg/kg i.p. 2/day): +241%
- % variation vs controls, shock response ([2]; 10 mg/kg i.p. 2/day): -81.4%
- % variation vs controls, total avoidance response ([2]; 10 mg/kg i.p. 2/day): +166%
- Average % avoidance learning, last 10 TR ([2]; 10 mg/kg i.p. 2/day): 71%
- Average % avoidance memory, first 10 TR/40 TR ([2]; 10 mg/kg i.p. 2/day): 34%
- Average % escape response ([2]; 10 mg/kg i.p. 2/day): 31%
- Average % shock response ([2]; 10 mg/kg i.p. 2/day): 13%
- Average % total avoidance response, 40 trials ([2]; 10 mg/kg i.p. 2/day): 56%
- Shock responses (in words) ([2]; rat, i.p.): greatly reduced
- Total avoidance responses (in words) ([2]; rat, i.p.): significantly increases the total avoidance responses in a dose-dependent manner
- Activity in inhibiting the binding of glutamate (in words) ([3]; rat cortical membranes): considerable activity in inhibiting the binding of the glutamate
- IC50 ([3]; rat forebrain membranes, 20 min, 37° C., pH 7.1): 13.8 µM
